Results as given in patent publication US9884821B2, “N1-cyclic amine-N5-substituted biguanide derivatives, methods of preparing the same and pharmaceutical composition comprising the same” (IMMUNOMET THERAPEUTICS INC., priority 2013, dated 2018).

Key:
AMPK = AMPK activation effect (AMPK [pT172] ELISA) in MCF7 cells; type: cell-based, human; conditions: 24 hours; for AMPK activation effect (%) 10 μM / AMPK activation effect (%) 50 μM / AMPK activation effect (%) 5 μM: AMPKα Thr172 phosphorylation relative to untreated cells; for AC150: concentration at which AMPK activation reached 150%
How it was run: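 MCF7 cells in DMEM/10% FBS were treated 24 h with compounds at 5, 10 and 50 uM. Lysates (20 μg protein) were assayed by ELISA for AMPKα Thr172 phosphorylation as the activation read-out.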

HCT116 cells = test: Effect of inhibiting cancer cell proliferation (MTT) in HCT116 cells; type: cell-based, human; conditions: for inhibition at 100 µM: read-out: Cell growth inhibition (%) at 100 μM; for inhibition at 25 µM: read-out: Cell growth inhibition (%) at 25 μM
How it was run: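 HCT116 colorectal cells (about 5,000 per well, DMEM with 10% FBS) treated with 100, 25, 6.25, 1.56 or 0.39 μM compound for 48 h. MTT added for 3 h, formazan read at 560 nm; GIC50 taken from viability relative to untreated cells.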

[1] = Homo sapiens, HCT-116, 48 h, 100 μM

Compound | GI50 (HCT116 cells; Homo sapiens, HCT-116, 48 h) | AMPK activation effect (%) 10 μM (AMPK) | AC150 (AMPK) | inhibition at 100 µM (HCT116 cells; [1]) | AMPK activation effect (%) 50 μM (AMPK) | Cell growth inhibition (%) at 100 μM (HCT116 cells; 100 μM, 48 hours) | GI50 (HCT116 cells; 48 hours) | AMPK activation effect (%) 5 μM (AMPK) | inhibition at 25 µM (HCT116 cells; Homo sapiens, HCT-116, 48 h) | AMPK activation effect (%) 5 μM (AMPK; hydrochloride) | AMPK activation effect (%) 10 μM (AMPK; hydrochloride) | AC150 (AMPK; hydrochloride)
N1-1,2-dihydropyrrole-N5-(4-methyl)phenyl biguanide hydrochloride [Example 50] | – | 317% | 1.4 µM | – | 440% | 46.0% | 117 µM | – | – | – | – | –
CC1=CCN(C(=N)NC(=N)Nc2cccc(OC(F)(F)F)c2)C1.Cl [Example 25, N1-(3-methyl)-1,2-dihydropyrrole-N5-(3-trifluoromethoxy)phenyl biguanide hydrochloride] | 4.9 µM | 376% | 2.2 µM | 96.6% | – | – | – | – | – | – | – | –
Cl.N=C(NCc1ccc(C(F)(F)F)cc1)NC(=N)N1CC=CCC1 [Example 56, N1-1,2,3,6-tetrahydropyridine-N5-(4-trifluoromethyl)benzyl biguanide hydrochloride] | 26.9 µM | 389% | 2.1 µM | 97.7% | 671% | – | – | – | – | – | – | –
CC1CCCN(C(=N)NC(=N)Nc2ccc(C(F)(F)F)cc2)C1.Cl (stereo not drawn) [Example 81, N1-(3-methyl)piperidine-N5-(4-trifluoromethyl)phenyl biguanide hydrochloride] | 7.7 µM | 396% | 1.9 µM | – | – | – | – | 224% | 100% | – | – | –
Cl.N=C(NC(=N)N1CC=CC1)Nc1ccc(OC(F)(F)F)cc1 [Example 4, N1-1,2-dihydropyrrole-N5-(4-trifluoromethoxy)phenyl biguanide hydrochloride] | 19.1 µM | 201% | 5.0 µM | 99.7% | 584% | – | – | – | – | – | – | –
CC1CCCN(C(=N)NC(=N)Nc2ccc(Br)cc2)C1.Cl (stereo not drawn) [Example 68, N1-(3-methyl)piperidine-N5-(4-bromo)phenyl biguanide hydrochloride] | 45.3 µM | 136% | 13.7 µM | – | – | – | – | 52% | 29.4% | – | – | –
COc1ccc(NC(=N)NC(=N)N2CC=CCC2)cc1.Cl [Example 40, N1-1,2,3,6-tetrahydropyridine-N5-(4-methoxyl)phenyl biguanide hydrochloride] | > 100 µM | 122% | 37.8 µM | 37.4% | 163% | – | – | – | – | – | – | –
CC1CCCC(C)N1C(=N)NC(=N)Nc1ccc(Cl)cc1.Cl (stereo not drawn) [Example 96, N1-(2,6-dimethyl)piperidine-N5-(4-chloro)phenyl biguanide hydrochloride] | 10.4 µM | 395% | 1.8 µM | – | – | – | – | 240% | 101% | – | – | –
CC1CCCN(C(=N)NC(=N)Nc2ccc(Cl)c(C(F)(F)F)c2)C1.Cl (stereo not drawn) [Example 69, N1-(3-methyl)piperidine-N5-(4-chloro, 3-trifluoromethyl)phenyl biguanide hydrochloride] | 1.9 µM | 650% | 1.2 µM | – | – | – | – | 307% | 100% | – | – | –
CC1=CCN(C(=N)NC(=N)NCc2ccc(Cl)c(C(F)(F)F)c2)C1.Cl [Example 27, N1-(3-methyl)-1,2-dihydropyrrole-N5-(4-chloro, 3-trifluoromethyl)benzyl biguanide hydrochloride] | 33.5 µM | 119% | 13.5 µM | 96.6% | 316% | – | – | – | – | – | – | –
CC1CCCC(C)N1C(=N)NC(=N)Nc1ccc(OC(F)(F)F)cc1.Cl (stereo not drawn) [Example 89, N1-(2,6-dimethyl)piperidine-N5-(4-trifluoromethoxy)phenyl biguanide hydrochloride] | 6.2 µM | 198% | 4.7 µM | – | – | – | – | 153% | 100% | – | – | –

Now from value to compound, other results behind:

GI50 (HCT116 cells; Homo sapiens, HCT-116, 48 h) | Compound | AMPK activation effect (%) 10 μM (AMPK) | AC150 (AMPK) | inhibition at 100 µM (HCT116 cells; [1]) | AMPK activation effect (%) 50 μM (AMPK) | Cell growth inhibition (%) at 100 μM (HCT116 cells; 100 μM, 48 hours) | GI50 (HCT116 cells; 48 hours) | AMPK activation effect (%) 5 μM (AMPK) | inhibition at 25 µM (HCT116 cells; Homo sapiens, HCT-116, 48 h) | AMPK activation effect (%) 5 μM (AMPK; hydrochloride) | AMPK activation effect (%) 10 μM (AMPK; hydrochloride) | AC150 (AMPK; hydrochloride)
3 µM | Cl.N=C(NC(=N)N1CC=CCC1)Nc1ccc(OC(F)(F)F)c(Cl)c1 [Example 11, N1-1,2,3,6-tetrahydropyridine-N5-(3-chloro,4-trifluoromethoxy) phenyl biguanide hydrochloride] | 637% | 1.4 µM | 98% | – | – | – | – | – | – | – | –
10.8 µM | Cl.N=C(NC(=N)N1CC=CC1)Nc1ccc(C(F)(F)F)c(F)c1 [Example 47, N1-1,2-dihydropyrrole-N5-(3-fluoro, 4-trifluoromethyl)phenyl biguanide hydrochloride] | 758% | 1.0 µM | 100% | – | – | – | – | – | – | – | –
42.8 µM | Cl.N=C(NC(=N)N1CC=CC1)Nc1ccc(Cl)cc1 [Example 8, N1-1,2-dihydropyrrole-N5-(4-chloro)phenyl biguanide hydrochloride] | 139% | 8.3 µM | 99.1% | 515% | – | – | – | – | – | – | –
2.8 µM | CC1CCCC(C)N1C(=N)NC(=N)Nc1ccc(Cl)c(C(F)(F)F)c1.Cl (stereo not drawn) [Example 94, N1-(2,6-dimethyl)piperidine-N5-(4-chloro, 3-trifluoromethyl)phenyl biguanide hydrochloride] | 643% | 1.1 µM | – | – | – | – | 328% | 100% | – | – | –
43.7 µM | CCCCCCNC(=N)NC(=N)N1CC=CCC1.Cl [Example 53, N1-1,2,3,6-tetrahydropyridine-N5-hexyl biguanide hydrochloride] | 311% | 2.3 µM | 97.9% | 589% | – | – | – | – | – | – | –
> 100 µM | Cl.N=C(N)NC(=N)N1CC=CCC1 [Example 61, N1-1,2,3,6-tetrahydropyridine biguanide hydrochloride] | 123% | >50 µM | 10.5% | 132% | – | – | – | – | – | – | –
18.6 µM | COc1ccc(NC(=N)NC(=N)N2CC=C(C)C2)cc1.Cl [Example 22, N1-(3-methyl)-1,2-dihydropyrrole-N5-(4-methoxyl)phenyl biguanide hydrochloride] | 116% | 24.5 µM | 37.1% | 209% | – | – | – | – | – | – | –
6.6 µM | Cl.N=C(NC(=N)N1CC=CCC1)Nc1ccc(OC(F)(F)F)c(F)c1 [Example 34, N1-1,2,3,6-tetrahydropyridine-N5-(3-fluoro, 4-trifluoromethoxy)phenyl biguanide hydrochloride] | 925% | 0.29 µM | 99.4% | – | – | – | – | – | – | – | –
7.5 µM | Cl.N=C(NC(=N)N1CC=CCC1)Nc1cccc(OC(F)(F)F)c1 [Example 30, N1-1,2,3,6-tetrahydropyridine-N5-(3-trifluoromethoxy)phenyl biguanide hydrochloride] | 703% | 0.53 µM | 99.7% | – | – | – | – | – | – | – | –
10.8 µM | CC1=CCN(C(=N)NC(=N)Nc2ccc(C(F)(F)F)cc2)C1.Cl [Example 16, N1-(3-methyl)-1,2-dihydropyrrole-N5-(4-trifluoromethyl)phenyl biguanide hydrochloride] | 398% | 1.7 µM | 99.3% | – | – | – | – | – | – | – | –
5.7 µM | CC1CCCN(C(=N)NC(=N)Nc2ccc(F)c(C(F)(F)F)c2)C1.Cl (stereo not drawn) [Example 71, N1-(3-methyl)piperidine-N5-(4-fluoro, 3-trifluoromethyl)phenyl biguanide hydrochloride] | – | – | – | – | – | – | – | 100% | 259% | 430% | 1.6 µM
17.5 µM | Cl.N=C(NCc1cccc(OC(F)(F)F)c1)NC(=N)N1CC=CC1 [Example 14, N1-1,2-dihydropyrrole-N5-(3-trifluoromethoxy)benzyl biguanide hydrochloride] | 151% | 8.4 µM | 98.8% | 507% | – | – | – | – | – | – | –
12 µM | Cl.N=C(NC(=N)N1CC=CC1)Nc1ccc(F)c(C(F)(F)F)c1 [Example 46, N1-1,2-dihydropyrrole-N5-(4-fluoro, 3-trifluoromethyl)phenyl biguanide hydrochloride] | 448% | 1.6 µM | 100% | – | – | – | – | – | – | – | –
8.7 µM | CC1CCCCN1C(=N)NC(=N)Nc1ccc(C(F)(F)F)cc1.Cl (stereo not drawn) [Example 74, N1-(2-methyl)piperidine-N5-(4-trifluoromethyl)phenyl biguanide hydrochloride] | 410% | 2.0 µM | – | – | – | – | 199% | 100% | – | – | –
135 µM | Cl.N=C(NC(=N)N1CC=CCC1)Nc1ccc(F)cc1 [Example 37, N1-1,2,3,6-tetrahydropyridine-N5-(4-fluoro)phenyl biguanide hydrochloride] | 187% | 4.2 µM | 45.3% | 522% | – | – | – | – | – | – | –
